Measurements taken from paper PMC7377239, “Cardiovascular Effects of Polychlorinated Biphenyls and Their Major Metabolites” (Environmental Health Perspectives, 2020).
Like-named read-outs stand apart in the source and are kept apart here.

Key:
[1] = test system: iCell cardiomyocytes (human iPSC-derived cardiomyocytes); experiment: High-content imaging of cytotoxicity and mitochondrial integrity in iPSC-CMs; format: cell-based; details: Homo sapiens, Cardiomyocyte, cardiomyocytes (cm)
How it was run: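 This assay measured cytotoxicity and mitochondrial integrity in iPSC cardiomyocytes held in 40μL maintenance medium. After compound exposure, a 2× staining solution with Hoechst 33342 (4μg/mL) and MitoTracker™ Orange (0.4μM) was applied for 15 min at 37°C. Cells were washed, fixed with 3.7% formaldehyde, imaged on DAPI and Cy3 channels, and scored in MetaXpress®.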

[2] = test system: HUVECs; experiment: High-content imaging cytotoxicity in HUVECs, 24 h; format: cell-based, human; details: Homo sapiens, HUVEC, 24 h, HUVEC, 24 hr
How it was run: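 Read-out: multiwavelength high-content imaging of Hoechst 33342, MitoTracker Orange and calcein AM after 24 h compound exposure of confluent HUVEC monolayers. POD values were set using a one-SD cutoff from vehicle (0.5% DMSO) means; with no concentration–response, 100μM was assigned as no observable adverse effect level.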

Which results are given for `Oc1ccc(-c2ccc(Cl)cc2)cc1` [4'-OH-PCB 3]?
minimal effective concentration ([1]; 1.5 h, cam, 90 min, read-out: POD cm.cam.90min): 12.4 µM; minimal effective concentration ([1]; 1.5 h, mii, 90 min, read-out: POD cm.mii.90min): 16 µM; minimal effective concentration ([1]; 1.5 h, mito, 90 min, read-out: POD cm.mito.90min): 11.5 µM; minimal effective concentration ([1]; 1.5 h, tc, 90 min, read-out: POD cm.tc.90min): 11.3 µM; minimal effective concentration ([1]; 24 h, cam, 24 hrs, read-out: POD cm.cam.24hrs): 32.3 µM; minimal effective concentration ([1]; 24 h, mii, 24 hrs, read-out: POD cm.mii.24hrs): 15.4 µM; minimal effective concentration ([1]; 24 h, mito, 24 hrs, read-out: POD cm.mito.24hrs): 37.2 µM; minimal effective concentration ([1]; 24 h, tc, 24 hrs, read-out: POD cm.tc.24hrs): 38.4 µM; minimal effective concentration ([2]; cyto, read-out: POD huvec.cyto.24hr): 7.01 µM; minimal effective concentration ([2]; mito, read-out: POD huvec.mito.24hr): 3.9 µM; minimal effective concentration ([2]; mitoint, read-out: POD huvec.mitoint.24hr): 11.2 µM; minimal effective concentration ([2]; nma, read-out: POD huvec.nma.24hr): 6.91 µM; minimal effective concentration ([2]; tc, read-out: POD huvec.tc.24hr): 7.01 µM
